Activity calls are given as the source filed them. The rule behind the calls is not given here.
Test system: Trypanosoma brucei growth inhibition
Test: T. brucei growth inhibition (AID 1159557);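 note: parasites exposed to compound for 48 h before the resazurin readout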

In order of falling IC50:
1. Cc1ccc2c(c1)-c1onc(C(=O)N3CCCCC3c3cccnc3)c1CO2 (centres undefined)  40 µM
2. CNc1c(C(N)=O)c(-c2ccc3scnc3c2)nn1CC(F)(F)F  32 µM
3. CCN(Cc1cccs1)C(=O)CSc1nnc(-c2ccc3c(c2)OCO3)o1  25 µM
4. COc1ccc(Nc2nc(-c3ccccn3)cs2)c(OC)c1  20 µM
5. Cc1c(C(C)NC(=O)Nc2cccc(Cl)c2)sc2ncnn12 (centres undefined)  20 µM
6. Cc1cc(C)n(-c2nc(NC(C)C)nc(NC(C)(C)C)n2)n1  20 µM
7. O=C(CN(Cc1ccccn1)Cc1ccccn1)NCc1csc(-c2cccs2)n1  20 µM
8. Cn1nc([N+](=O)[O-])nc1Oc1ccc(C(=O)c2ccccc2)cc1  20 µM
9. Cc1ccc2nc(N(Cc3cccnc3)C(=O)CCc3ccccc3)sc2c1  13 µM
10. O=C(CCCNC(=O)c1ccc(Cl)cc1)Nc1nc(-c2ccccn2)cs1  7.9 µM
11. Cc1ccccc1CNC(=O)CN(Cc1ccccn1)Cc1ccccn1  6.3 µM
12. O=[N+]([O-])c1ccc(C2=CC(c3ccccc3)=NCCN2)cc1  6.3 µM
13. CC(C)COC(=O)Nc1ccc(N2CCC(CNS(=O)(=O)c3ccccc3)CC2)c(F)c1  2.5 µM
14. O=C(Nc1cccc(Cl)c1)Nc1ccc([N+](=O)[O-])cc1Cl  2.5 µM
15. OC1CCC(Nc2nccc(-c3sc(C4CCOCC4)nc3-c3ccc(F)c(F)c3)n2)CC1 (centres undefined)  2 µM
16. Cn1ccnc1-c1nc(NCc2ccccc2Cl)cc(C2CC2)n1  2 µM
17. O=C1COC(c2ccccc2)(c2ccccc2)CN1C1CCN(Cc2ccc(-n3ccnc3)cc2)CC1  0.79 µM
18. COc1ccc(NS(=O)(=O)c2cccc(NC(=O)c3cc(F)cc(F)c3)c2)cc1  0.63 µM
19. COc1cc(-c2noc(CC#N)n2)ccc1OC(F)F  0.63 µM
20. COC(=O)c1ccc(-c2cnc3ccc(NCc4ccccn4)nn23)cc1  0.63 µM
21. O=C(NCCc1nc(-c2ccc(F)c(F)c2)n[nH]1)C1CCCCC1  0.5 µM
22. CN(C)S(=O)(=O)c1ccc(-c2cnc(N)c(-c3nc4ccc(F)cc4[nH]3)c2)cc1  0.4 µM
23. Cc1ccccc1NS(=O)(=O)c1ccc2[nH]cc(C(=O)NC3CCCC(C)C3C)c(=O)c2c1 (centres undefined)  0.32 µM
24. COc1cc(F)c2ncc(F)c(CCN3CC[C@H](NCc4cc5c(cn4)OCS5)[C@@H](O)C3)c2c1  0.25 µM
25. C[C@@H](Oc1cc(-n2cnc3ccc(O[C@H]4CCNC4)cc32)sc1C(N)=O)c1ccccc1Cl  0.25 µM
26. CCc1ccccc1[C@@H](C)NC(=O)c1cnc2c(cnn2CC)c1NC1CCN(C(N)=O)CC1  0.25 µM
27. CC(C)C[C@H](NC(=O)c1csc(-c2cccs2)n1)C(=O)NC1(C#N)CC1  0.16 µM
28. Cc1cc(NC(=O)C2CCCCC2)n(-c2nc3c(c(=O)[nH]2)CCC3)n1  0.13 µM
29. COc1ccc(-c2csc(NC(=O)c3ccc([N+](=O)[O-])s3)n2)cc1OC  0.13 µM
30. COc1ccc2ncc(F)c(CCN3CC[C@@H](NC(=O)c4cc5c(s4)CCC5)[C@@H](O)C3)c2n1  0.1 µM
31. CC(C)C[C@H](NC(=O)c1ccc(-c2ccccc2)o1)C(=O)NC1(C#N)CC1  0.1 µM
32. N#Cc1cccc(Cc2cc(Nc3cc(C4CC4)[nH]n3)nc(N3CC[C@H]3C(N)=O)n2)c1  0.04 µM
33. CS(=O)(=O)N1CCC(Nc2ncc(Br)c(Nc3cccc(F)c3C(N)=O)n2)CC1  0.01 µM

With `O=C(CSc1ccc(F)cc1)N[C@@H](Cc1cnc[nH]1)C(=O)NCCc1ccccc1` the IC50 was > 40 µM (inactive).
